In publication PMC3005796 (Biochemistry, 2010):

What was measured:
2B6 = conditions: ref [20]; cited from earlier work
[1] = target: T1, Human cytochrome P450 2B6dH (Homo sapiens, UniProt P20813); assay: biochemical
[2] = target: T2, Cytochrome P450 2B4dH(H226Y) (Oryctolagus cuniculus, UniProt P00178, H226Y); assay: biochemical
P450 2B4 [3] = target: T3, P450 2B4 (Oryctolagus cuniculus, UniProt P00178, H226Y); assay: biochemical
P450 2B4 [4] = target: T3, P450 2B4; conditions: ratio 2B4/2B6
[5] = target: T1, Human cytochrome P450 2B6dH; conditions: 1 μM P450, 25 °C, 50 mM potassium phosphate pH 7.4, 500 mM NaCl, 500 mM sucrose
[6] = target: T2, Cytochrome P450 2B4dH(H226Y); conditions: for ΔAmax: 2B4dH, 1 μM P450, 25 °C, 50 mM potassium phosphate pH 7.4, 500 mM NaCl, 500 mM sucrose
P450 2B6 = P450 2B6 (Homo sapiens, UniProt P20813, D28G/E2A/H23K/H27K/N25S/P24T/R22K/R29K/T26S); assay: biochemical

Row | SMILES | suppression of bupropion hydroxylation by 2B6 (2B6) [%] | Kd [1] [nM] | Kd [2] [nM] | Ki (P450 2B4 [3]) [nM] | fold higher Ki of 2B4 than 2B6 (P450 2B4 [4]) [fold] | ΔAmax [5] [OU μM^-1] | ΔAmax [6] [OU μM^-1] | fold higher Ks of 2B4 compared with 2B6 ([6]; ratio 2B4/2B6) [fold] | Ki (P450 2B6) [nM]
1 | COC(=O)[C@H](c1ccccc1Cl)N1CCc2sccc2C1 [Clopidogrel, clopidogrel] | 68 | 100 ± 70 | 600 ± 60 | 360 ± 40 | 4 | 0.04 ± 0.005 | 0.05 ± 0.001 | ~6 | 100 ± 10
2 | Clc1ccccc1CN1CCc2sccc2C1 [Ticlopidine, ticlopidine] | 90 |  | 1300 ± 100 | 810 ± 100 |  | 0.02 ± 0.001 | 0.03 ± 0.008 |  | 
